Experimental data reported in patent US8796327B2, “Method for inhibiting production of cytokines of T helper cell type II and/or inhibiting production of chemokines using brazilin” (China Medical University, priority 2010, dated 2014).

Assays:
IL-5 = assay: ELISA of IL-5 in supernatant of EL-4 T lymphoma cells; assay type: cell-based, mouse; conditions: EL-4 cells
Protocol: First, in an incubator containing 5 vol % of CO2 at 37° C., EL-4 mouse T lymphoma cells (commercially available from ATCC, Manassas, Va., America) were cultured in the DMEM culture medium (containing 10 wt % of thermally deactivated FBS), and were sub-cultured at a ratio of 1:3.
Then, at a density of 5×10^5 counts/ml, the T lymphoma cells were bred in a six-well culture dish, and at the 0th minute, brazilin of different concentrations (0.3, 1, 3, 10, or 30 micromole (μM)) was added into the cell culture solution at an amount of 1 μl/ml-cell culture solution. Then, the cells were put into the incubator to be cultured therein. […] During the process of cell culture, the trypan blue exclusion assay was employed to observe effect of the brazilin on the cell viability, results of which are shown in Table 1 and FIG. 1.
At 4° C., the T lymphoma cells obtained from Experiment A were centrifugally rotated at a rotational speed of 1000 rpm and at 4° C. for 5 minutes, and the supernatant was collected and analyzed for cytokines.
An enzyme-linked immunosorbent assay (ELISA) kit (commercially available from R&D Systems, Inc., America) was used to analyze the expression of IFN-γ, IL-4, IL-5, and eotaxin cytokines in the aforesaid supernatant, results of which are shown in Table 2, Table 3, FIG. 2, and FIG. 3.
In Experiment B and the following Experiment C, all experimental data are presented in form of “mean±standard deviation”, and statistical discrepancy was analyzed by means of the One-way ANOVA and Newman-keuls post-hoc tests, in which it is considered that there is statistical discrepancy if p<0.05.

[1] = test system: macrophages, lymphocytes, eosinophils, and neutrophils in bronochial alveolar lavage fluid; assay: Immunocyte counts in bronochial alveolar lavage fluid, mice with asthma (OVA); assay type: in vivo; conditions: OVA-sensitized BALB/c mice; for Number of eosinophils (×10^4) / Number of lymphocytes (×10^4) / Number of macrophages (×10^4) / Number of neutrophils (×10^4): i.p. or i.t., bronochial alveolar lavage fluid
Protocol: (§1) In Example 2, mice with asthma were used to conduct in vivo experiments, and ovalbumin (OVA) was used as an allergen.
(§2) The mice were sensitized (or challenged) according to the steps shown in FIG. 9 (see Lee et al., Lentiviral-mediated GATA-3 RNAi decreases allergic airway inflammation and hyperresponsiveness. Molecular Therapy, 2008; 16:60-65, which is incorporated herein in its entirety by reference). First, 50 μg OVA (using 2 mg alumina (Alum, Alumlmuject, Pierce Chemical, Rockford, Ill., USA) as an adjuvant) was injected into six to eight-week-old BALB/c female mice (from National Laboratory Animal Center, Taiwan) by intraperitoneal injection (i.p.). At 0th, 14th, and 28th day, the mice were injected with OVA at the same dosage. Before the administration of OVA at the forty-first and the forty-second days, different dosages of brazilin (high dose: 430 μg/mice; low dose: 43 μg/mice) were administrated to the mice by intraperitoneal injection (i.p.) or intratracheal instillation (i.t.). During the fortieth to the forty-second days, 100 μg OVA was dissolved in 40 μl PBS, and was administrated to the mice by intranasal instillation (i.n.) (once everyday, for three days). At the forty-third day, airway hyperresponsiveness of the mice was observed. At the forty-sixth day, the mice were sacrificed and used to conduct the following Experiments E to G During the above procedure, it was observed if any toxicity response arises after the administration of brazilin to the mice. In this experiment, the mice administrated with OVA were used as a positive control, and the mice not administrated with OVA were used as a negative control.
In Experiment D, after 24 hours from the last administration of OVA into the noses of the mice, the mice were sacrificed, and the blood was collected from the orbital cavities of the mice. Then, a cannula was immediately inserted into the bronchi of the mice, and the lungs of the mice were washed with a 1 ml HBSS buffer solution containing no calcium and magnesium ions three times, and a bronochial alveolar lavage fluid is collected. The fluid was centrifuged at 4° C. and with a revolution speed of 400 g for 10 minutes. Cells obtained after the centrifugation were re-suspended in a 1 ml HBSS buffer solution, and the total cell number was counted with a hemocytometer.
Then, the cells were fixed on a glass sheet in a way of cytocentrifuged preparations, and the Liu's stain (see Lee et al., Lentiviral-mediated GATA-3 RNAi decreases allergic airway inflammation and hyperresponsiveness. Molecular Therapy. 2008; 16:60-65, which is incorporated herein in its entirety by reference) was carried out to calculate the number of various kinds of cells. The cell number was calculated by counting the number of macrophages, lymphocytes, eosinophils, and neutrophils in 300 cells respectively. The cells were categorized according to their standard morphology, and the invasion of inflammatory cells into the lungs was observed.

eotaxin = assay: ELISA of eotaxin in bronochial alveolar lavage fluid, mice with asthma (OVA); assay type: in vivo, BALB/c mice; conditions: for Eotaxin concentration (pico-gram/ml): i.p. or i.t., OVA-sensitized BALB/c mice
Protocol: as §1
as §2, with “At the forty-sixth day, the mice were sacrificed and used to conduct the following Experiments E to G During the above procedure, it was observed if any toxicity response arises after the administration of brazilin to the mice. In this experiment, the mice administrated with OVA were used as a positive control, and the mice not administrated with OVA were used as a negative control.” left out
In Experiment D, after 24 hours from the last administration of OVA into the noses of the mice, the mice were sacrificed, and the blood was collected from the orbital cavities of the mice. […] Cells obtained after the centrifugation were re-suspended in a 1 ml HBSS buffer solution, and the total cell number was counted with a hemocytometer.
The bronochial alveolar lavage fluid collected in Experiment E was centrifuged at 4° C. and with a revolution speed of 400 g for 10 minutes. After the supernatant was collected, the expression of eotaxin, IL-4, IL-5, and IFN-γ was analyzed with an ELISA kit (R&D Systems, Inc., USA). […]

IL-4 = assay: ELISA of IL-4 in supernatant of EL-4 T lymphoma cells; assay type: cell-based, mouse; conditions: EL-4 cells, no PMA + cAMP

## Oc1ccc2c(c1)OC[C@]1(O)Cc3cc(O)c(O)cc3[C@H]21 [brazilin]
IL-5; result in words
  expression of protein of IL-5 cytokine: inhibited
IL-5; brazilin 0.3 μM + PMA + cAMP
  Concentration of IL-5 (pico-gram/ml): 2480 ± 515.9 pico-gram/ml
IL-5; brazilin 0.3 μM, no PMA + cAMP
  Concentration of IL-5 (pico-gram/ml): 5.925 ± 3.462 pico-gram/ml
IL-5; brazilin 1 μM + PMA + cAMP
  Concentration of IL-5 (pico-gram/ml): 2580 ± 402.8 pico-gram/ml
IL-5; brazilin 1 μM, no PMA + cAMP
  Concentration of IL-5 (pico-gram/ml): 0.2422 ± 0.2422 pico-gram/ml
IL-5; brazilin 3 μM + PMA + cAMP
  Concentration of IL-5 (pico-gram/ml): 2345 ± 392.6 pico-gram/ml
IL-5; brazilin 3 μM, no PMA + cAMP
  Concentration of IL-5 (pico-gram/ml): 0.2422 ± 0.2422 pico-gram/ml
IL-5; brazilin 10 μM + PMA + cAMP
  Concentration of IL-5 (pico-gram/ml): 1809 ± 337.9 pico-gram/ml
IL-5; brazilin 10 μM, no PMA + cAMP
  Concentration of IL-5 (pico-gram/ml): 1.474 ± 0.9891 pico-gram/ml
IL-5; brazilin 30 μM + PMA + cAMP
  Concentration of IL-5 (pico-gram/ml): 1292 ± 531.6 pico-gram/ml
IL-5; brazilin 30 μM, no PMA + cAMP
  Concentration of IL-5 (pico-gram/ml): 0.0 ± 0.0 pico-gram/ml
[1]; High dose (430 μg/mice)
  Number of eosinophils (×10^4): 10.52 ± 4.543 ×10^4
  Number of lymphocytes (×10^4): 0.8106 ± 0.3015 ×10^4
  Number of macrophages (×10^4): 34.25 ± 4.970 ×10^4
  Number of neutrophils (×10^4): 0.2178 ± 0.1799 ×10^4
[1]; Low dose (43 μg/mice)
  Number of eosinophils (×10^4): 21.39 ± 1.491 ×10^4
  Number of lymphocytes (×10^4): 0.7421 ± 0.2902 ×10^4
  Number of macrophages (×10^4): 41.67 ± 6.885 ×10^4
  Number of neutrophils (×10^4): 0.6476 ± 0.2759 ×10^4
[1]; result in words
  number of eosinophils in the lungs of the mice: decreased
eotaxin; BALB/c mice, result in words
  production of β-chemokine, eotaxin: inhibited
eotaxin; High dose (430 μg/mice)
  Eotaxin concentration (pico-gram/ml): 12.61 ± 1.334 pico-gram/ml
eotaxin; Low dose (43 μg/mice)
  Eotaxin concentration (pico-gram/ml): 18.64 ± 3.784 pico-gram/ml
IL-4; brazilin 0.3 μM
  Concentration of IL-4 (pico-gram/ml): 2.569 ± 0.1160 pico-gram/ml
IL-4; brazilin 1 μM
  Concentration of IL-4 (pico-gram/ml): 5.353 ± 1.276 pico-gram/ml
IL-4; brazilin 3 μM
  Concentration of IL-4 (pico-gram/ml): 5.469 ± 0.1160 pico-gram/ml
IL-4; brazilin 10 μM
  Concentration of IL-4 (pico-gram/ml): 7.093 ± 0.3480 pico-gram/ml
IL-4; brazilin 30 μM
  Concentration of IL-4 (pico-gram/ml): 4.715 ± 0.9859 pico-gram/ml
